Results: patent publication US6867186B2, “Cell-permeable protein inhibitors of calpain” (New England Medical Center Hospital, priority 1997, dated 2005)
Where two headings read alike, the source gives them in different places.

Assays:
[1] = test system: platelets; experiment: cells; set-up: increase in P-selectin surface expression over unstimulated: dose or concentration left out as unconfirmed
Experimental: To determine whether S-TIPPEYIN could inhibit α-granule secretion in platelets, surface expression of P-selectin, which indicates α-granule secretion, was induced with the thrombin peptide SFLLR (SEQ ID NO:5) and analyzed by flow cytometry using an antibody against P-selectin. Blood from healthy volunteers was collected into sodium citrate (4% w/v) and centrifuged at 200×g for 10 minutes to prepare platelet-rich plasma (PRP), from which platelets were subsequently purified by gel filtration using a SEPHAROSE 2B column in PIPES buffer. Twenty μl of platelets (approximately 2×10^8 platelets/ml) were aliquoted into eppendorf tubes and one μl of S-TIPPEYIN, TIPPEYIN (lacking the signal peptide sequence), or S-TIPPEY-ala was added to achieve final concentrations of 6.25, 12.5, 25, 50, or 100 μM. The platelets were then incubated for 2 hours at 37° C. and subsequently exposed to either 1 μl PBS (unstimulated) or 1 μl of SFLLR (SEQ ID NO:5; stimulated) at the indicated concentration. After 30 seconds, a 7.5 μl aliquot was transferred to an eppendorf tube containing non-immune serum having antibodies that were conjugated to phycoerythrin. Following a 20 minute incubation at room temperature, the mixture was diluted with 1 ml of 2% paraformaldehyde and incubated at 4° C. for two hours. Antibody binding to platelet surface P-selectin was quantified using a FACSCAN flow cytometer (Becton Dickerson, San Jose, Calif.). Results were reported as the geometric mean of the relative fluorescence.
Platelets were pre-incubated with increasing concentrations of calpeptin, MDL, E64d, or DMSO (vehicle control) for ten minutes prior to stimulation with SFLLR.

[2] = test system: U1 cells; experiment: U1 cell viability (Trypan-blue exclusion); assay type: cell-based, human; settings: 5 μM calpastat, 96 hr; from 40% without
Experimental: (§1) U1 is a human promonocytic cell line that is chronically infected with HIV-1 and that constitutively expresses low levels of HIV-1. […] In the present experiment, 1×10^6 cells/ml were treated with various dosages of calpastat and incubated for one hour at 37° C. After incubation, various concentrations of Tpg were added to the calpastat-treated cells and aliquoted into a 24-well plate. To observe the stimulation of HIV-1 activity by Tpg, equivalent numbers of cells were treated with Tpg alone. The cells were then incubated at 37° C. for up to four days, and supernatants from the cell culture were collected each day to measure HIV-1 activity. The viability of cells treated with both Tpg and calpastat were determined each day by Trypan-blue exclusion test. The HIV-1 activity in the collected supernatants was determined by measuring the HIV-1 p24 core antigen protein by ELISA (Dupont Medical Products, Boston, Mass.) according to the manufacturer's instructions.
(§2) In another series of experiments, U1 cells, which are latently infected with HIV-1 provirus, were plated at 10^6 cells/well in 1 ml of medium and treated with varying concentrations of either calpastat (FIG. 7E) or calpeptin (benzyloxycarbonyl-leucyl-norleucinal) (FIG. 7F) for 45 minutes before addition of thapsigargin (4 nM final concentration). The viability of U1 monocytes was 90% at 48 hours of thapsigargin (4 nM) treatment, in the presence or absence of calpain inhibitors. After 48 hours of stimulation, HIV-1 p24 antigen levels were determined in 200 μl of tissue culture supernatant, using a p24 ELISA (DuPont). All assays were performed on triplicate cultures. Mean values and standard deviations are shown for each concentration of inhibitor (FIGS. 7E-7F).

[3] = test system: HIV-1
Experimental: as §1
as §2, with “The viability of U1 monocytes was 90% at 48 hours of thapsigargin (4 nM) treatment, in the presence or absence of calpain inhibitors.” left out, “cultures.” for “cultures. Mean values and standard deviations are shown for each concentration of inhibitor (FIGS. 7E-7F).”

[4] = test system: calpain; experiment: Ionophore-dependent calpain degradation of ABP and talin in platelets; assay type: cell-based; settings: 5, 8, or 10 minutes A23187
Experimental: To investigate whether calpastat inhibits calpain activity in platelets, the ionophore-dependent proteolysis of actin binding protein (ABP; about 280 kDa) and talin (about 240 kDa), both of which are substrates of both μ- and m-calpains, was examined as follows.
Platelets were pre-incubated with ZLLYCHN2, DMSO (solvent for ZLLY-CHN2), calpastat, or HEPES buffer (buffer for calpastat), and then treated with or without ionophore A23187 for 5, 8, or 10 minutes. The platelets were then gel-purified as described above. Whole cell lysates were prepared and fractionated by SDS polyacrylamide gel electrophoresis.

[5] = test system: red blood cells isolated from sickle cell patients; experiment: Na2S2O5-induced sickling of sickle erythrocytes; assay type: cell-based, human
Experimental: To examine sickling, a wet preparation of red blood cells (as opposed to a dried smear) was made by placing blood under a coverslip on a glass slide. The slide was placed under a light microscope, and the number of cells displaying sickled morphology was counted. Na2S2O5 was used to increase the rate of sickling.
When EDTA-anticoagulated peripheral blood from a sickle cell patient was preincubated with calpastat for 10 minutes prior to exposure to sodium metabisulfite (Na2S2O5), there was a significant delay (about 30 minutes) in sickling.
In a second experiment, the effect of calpastat on recovery from sickling was measured. Blood from the same patient was incubated with Na2S2O5, for two hours in a microfuge tube. The supernatant plasma was then removed from the settled erythrocytes and the erythrocytes were diluted in four volumes of saline. The washed erythrocytes were then incubated in saline, and Wright-Giemsa stained smears were made 60 minutes following the washout of Na2S2O5.

[6] = test system: U937 cells; experiment: Chemokine production of thapsigargin-stimulated U937 cells; assay type: cell-based; settings: 5 nM calpastat
Experimental: peptides can inhibit chemokine production in vitro. The effect of […] on chemokine production was tested as follows. […] The chemokines (MIP-1α, MIP-1P and RANTES) in the supernatants of U937 cells were assayed using QuantikineTM kits and as described by R&D Systems (Minneapolis, Minn.). […] Thus, […] be used to reduce production of inflammatory cytokines and treat inflammatory disorders.

[7] = sixty minutes following Na2S2O5 washout

Row | Substance | effect on SFLLR-induced P-selectin surface expression ([1]; pre-incubation, SFLLR stimulation) | IC50 [1] [µM] | P-selectin surface expression induced by ionophore A23187 ([1]; A23187) | maximal inhibition of P-selectin surface expression ([1]; FIG. 3, SFLLR) [µM] | increase in P-selectin surface expression over unstimulated ([1]; SFLLR alone approximately 10-fold) [fold] | IC50 ([1]; read-out: half-maximal inhibition of P-selectin surface expression, FIG. 3, SFLLR) [µM] | viability of U1 cells in 4 nM Tpg [2] [%] | decrease of mean fold viral production ([3]; 5 μM, 24 hours of Tpg stimulation) [%] | decrease of mean fold viral production ([3]; 5 μM, 46 hours of Tpg stimulation) [%] | decrease of mean fold viral production ([3]; 5 μM, 72 hours of Tpg stimulation) [%] | decrease of mean fold viral production ([3]; 5 μM, 96 hours of Tpg stimulation) [%] | inhibition of HIV-1 release from infected cells ([3]; 5 μM, overall) | IC50 ([3]; read-out: IC50, inhibition of HIV-1 replication, FIG. 7E, U1 cells, thapsigargin 4 nM, 48 hours) [µM] | A23187-dependent calpain degradation of ABP and talin in platelets [4] | final percentage of sickled cells ([5]; Na2S2O5) | delay in sickling ([5]; preincubated 10 minutes prior to Na2S2O5) | percentage of discocytes compared to S-TIPPEY-ala-treated cells [5, 7] | percentage of sickled cells compared to S-TIPPEY-ala-treated cells [5, 7] | reduction of production of chemokines (MIP-1α, MIP-1P and RANTES) [6]
1 | AAVALLPAVLLALLAPEKLAERADAAAPEAAELLEKKTGV [Calpastat-ala] | no effect | – | – | – | – | – | – | – | – | – | – | – | – | – | – | – | – | – | –
2 | H-AAVALLPAVLLALLAPEKLGERDDTIPPEYRELLEKKTGV-OH [Calpastat] | – | 30 | inhibited | 40 to 60 | 5 | 15 to 20 | 90 | 47 | 44 | 55 | 61 | about 50% | 0.05 | inhibited | no detectable difference | about 30 minutes | two-fold greater | two-fold lower | about one third
